Earlier results, collected in patent US20160107977A1, “METHODS OF SYNTHESIS OF INGENOL AND INTERMEDIATES THEREOF” (LEO LABORATORIES LIMITED, priority 2013, published 2016).

Assays:
Epstein-Barr virus = conditions: lymphoblastoid cells; Keller et al. 1982
[1] = system: breast cancer cell line MDA-MB-231; conditions: p53-mediated pathway, Vigone et al. 2005
[2] = system: breast cancer cell line T47D; conditions: p53-mediated pathway, Vigone et al. 2005

Compound	Epstein-Barr virus induction (Epstein-Barr virus)	antitumour activity [1]	antitumour activity [2]
CCCCCCCCCCCCCCCC(=O)O[C@H]1C(C)=C[C@]23C(=O)[C@@H](C=C(CO)[C@@H](O)[C@]12O)[C@H]1[C@@H](C[C@H]3C)C1(C)C	most potent Epstein-Barr virus inducer		
CC1=CC23C(=O)C(C=C(COC(=O)c4ccccc4)C(O)C2(O)C1O)C1C(CC3C)C1(C)C (stereo not drawn) [ingenol-20-benzoate]		antitumour activity characterized by inhibition of cell growth and apoptotic cell death	antitumour activity characterized by inhibition of cell growth and apoptotic cell death
